Assay results from PMC12040169 (PLOS Biology, 2025).

assay: in vitro; details: human, hela cells

Structure (SMILES)	viability at 28.5 h, 10 µM
O=C(O)CP(=O)(O)c1ccc(Cl)cc1 [CBK019291]	102%

same assay, conditions: human, hela cells, % viability

Structure (SMILES)	viability at 28.5 h, 10 µM
CC1CCc2c(sc3ncnc(SCC(=O)N(C)C)c23)C1 (centres unmarked) [CBK305946]	92.9%
CC(C)N1CCC(N(C)Cc2c[nH]nc2C(C)(C)C)CC1 [CBK283002]	92.9%
O=c1[nH]c(=O)c2cc(S(=O)(=O)NCCN3CCc4ccccc43)ccc2[nH]1 [CBK286360]	91.5%
COc1ccc([C@@]23CC[C@H](NC(=O)CSc4nccn4C)C[C@@H]2N(C)CC3)cc1OC [CBK036444]	84.7%
Cn1c(=O)c(-c2nc3ccccc3[nH]2)c(O)c2ccccc21 [CBK027678]	92.7%
Cc1cccc(C2(O)CCN(C(=O)c3ccc4nc(C)[nH]c4c3)CC2)c1 [CBK283299]	102%
CC(C)Oc1ccc(C(=O)C2=C(O)C(=O)N(Cc3cccnc3)C2c2cccc([N+](=O)[O-])c2)cc1 (centres unmarked) [CBK264936]	89.2%
FC(F)(F)c1ccnc(OCCNc2ccccc2)c1 [CBK115824]	90.5%
CN(C)CCNC(=O)c1sc2ccccc2c1CC1CCCCCN1C(=O)C1CCC1 (centres unmarked) [CBK286096]	105%
Cc1c(C(=O)O)sc(S(=O)(=O)N2CCN(C(=O)Cc3ccsc3)CC2)c1C(=O)O [CBK297134]	89.8%
COc1ccc(CCNC(=O)N(C)C2CCN(C)C2)cc1OC (centres unmarked) [CBK156007]	97.9%
NC(=O)CN1CCCc2ccccc21 [CBK138343]	90%
Clc1ccccc1C1N(Cc2ccccc2)CCN1Cc1ccccc1 [CBK261217]	93.8%
C=CCSc1nc2ccccc2c(=O)n1CCc1ccccc1 [CBK055285]	81.9%
O=C(O)CCC(=O)NCCc1ccc(Cl)cc1 [CBK287165]	92.7%
CC(=O)c1ccc(-c2cnc3[nH]c(=O)n(C4CCCCC4)c3n2)s1 [CBK064382]	103%
CC(=O)c1c(C)oc2ccc(O)c(CN3CCOCC3)c12 [CBK160396]	104%
O=C(COc1ccc(S(=O)(=O)N2CCOCC2)cc1)NCc1ccccc1 [CBK268533]	98.6%
C=CCn1c(Cc2csc(NC(=O)c3cnc(SC)n3-c3ccccc3)n2)n[nH]c1=S [CBK297786]	84.3%
Cc1ccc(-n2ncc3c(NCCc4ccc(S(N)(=O)=O)cc4)ncnc32)c(C)c1 [CBK265676]	92.4%
CC(NC(=O)c1ccccc1Cn1cncn1)C1CC2CCC1C2 (centres unmarked) [CBK281654]	85.8%
Cc1cc(NC(=O)CN2CCN(c3ccccc3)CC2)c2ccccc2n1 [CBK278322G]	99.5%

Structure (SMILES)	viability at 28.5 h, 10 µM
COCCC(=O)Nc1cnc(-c2ccc(F)c(Cl)c2)c(-c2cccnc2)n1 [CBK036938]	95.2%
CCn1c(CN2CCC(c3noc(C)n3)CC2)nc2c(F)cccc21 [CBK304960]	91.1%
Clc1nc2ccccc2nc1N1CCCC1 [CBK083596]	101%
CC1=CCCN(C(=O)C23CCOCC2CN(c2ncc(F)cn2)C3)C1 (centres unmarked) [CBK304263]	87.3%
COCCc1noc(CC2CCN(c3ncc(Cl)cn3)CC2)n1 [CBK304172]	88.7%
Cc1cc(C(=O)N(C)CC2(C)COC2)nc2ccccc12 [CBK281956]	90.2%
COc1ccc(Br)cc1S(=O)(=O)Nc1cccc(C(=O)Nc2ccc(F)cc2)c1 [CBK038981]	75.4%
CCCc1[nH]nc(O)c1Cc1ccccc1CS(=O)(=O)c1ccccc1 [CBK074347]	87.8%
COc1ccc(S(=O)(=O)Nc2nccnc2-c2ccc(CN3C(=O)CCC3=O)cc2)cc1 [CBK050699]	110%
O=C(CCCc1ccccc1)Nc1cccnc1N1CCNCC1 [CBK028256T]	93.1%
CC(=O)NC(CC(=O)N1CCc2sccc2C1c1ccccc1)c1ccc(F)cc1 (centres unmarked) [CBK285548]	112%
CC(CC(=O)N1CCCC(c2cc3cccnc3[nH]2)C1)n1cccn1 (centres unmarked) [CBK284996]	86.2%
O=C1CN(C(=O)c2cc(-c3ccncc3)nc3ccccc23)CCN1 [CBK304370]	104%
O=C(CC[C@@H]1CNC(=O)[C@@H]2C[C@H](NC(=O)C3CC3)CN12)Nc1ccccc1 [CBK289006]	113%
Cc1nn2cc(CNC(=O)CN3CCOc4ccccc4C3)nc2s1 [CBK306921]	89%
Cc1cccc(/C=C2/SC(=S)N(CC(=O)O)C2=O)n1 [CBK265146]	82.9%
Cc1ccc(NC(=O)c2c[nH]c(=O)[nH]c2=O)cc1 [CBK113246]	95.7%
COc1cccc(C(NC(=O)c2cccc(Cn3ccnc3C)c2)c2ccccc2)c1 (centres unmarked) [CBK285620]	111%
Cc1nc(C)n(CC2CCCN(S(=O)(=O)c3cnc4ccsc4c3)C2)n1 (centres unmarked) [CBK306274]	84.3%
Cc1nn(Cc2ccc(C(=O)Nc3c(C)nn(Cc4ccc(Cl)c(Cl)c4)c3C)o2)c(C)c1Br [CBK265855]	83.5%
CCN1C(=O)C2(CC(=O)N(CCCCC(C)C)C2=O)c2cc(C)ccc21 (centres unmarked) [CBK075173]	103%
O=C1CC[C@@H](C(=O)N2CCc3nc(-c4ccccc4F)sc3C2)N1 [CBK281891]	82.1%

Structure (SMILES)	viability at 28.5 h, 10 µM
COc1cc2c(cc1OC)CN(C(=O)Cn1cc(C)c(=O)[nH]c1=O)CC2 [CBK122745]	92.4%
C/C(=N\NC(=O)c1ccc(CN2CCOCC2)cc1)c1ccc2c(c1)OCCO2 [CBK262755]	92%
COCCCn1cnnc1C(C)NC(=O)N(C)Cc1nccs1 (centres unmarked) [CBK306702]	111%
Cc1cn(CC(=O)N2CCN(c3ncccn3)CC2)c(=O)[nH]c1=O [CBK144513]	105%
O=C(c1ccc2[nH]ccc2c1)N1CCc2ccccc21 [CBK200269]	101%
Cc1cc(C(=O)Nc2ccc3ncccc3c2)ccc1Cl [CBK159804]	88.8%
Cc1ccc(CN2C[C@H]3C(=O)Nc4ccccc4C(=O)N[C@@]3(C)C2)o1 [CBK284706]	95.7%
CCc1nnc(SC(C)C(=O)N2CCCc3ccccc32)[nH]1 (centres unmarked) [CBK306009]	84.1%
Cc1csc(C(Cc2ccsc2)NC(=O)CN2CCCC2=O)n1 (centres unmarked) [CBK285046]	81.9%
COc1cccc(CC(=O)Nc2ccc3c(C)cc(C)nc3n2)c1 [CBK287992]	74.1%
Cc1ccc(S(=O)(=O)NC(CO)C(=O)O)cc1 (centres unmarked) [CBK260965]	96%
COc1cccc(Cc2c(C)nc3c(C(=O)NCCCN4CCCC4=O)cnn3c2C)c1 [CBK162055]	111%
O=C(CN(c1ccc2c(c1)OCCO2)S(=O)(=O)c1ccccc1)N1CCN(Cc2ccccc2)CC1 [CBK266444]	113%
CN(C)CCN(C)c1ccc(-c2ccc(F)c(Cl)c2)cn1 [CBK036979]	96.8%
COc1ccc(N(Cc2cccnc2)C(=O)c2ccc(-c3ccccc3)[nH]c2=O)cc1 [CBK283089]	105%
OC(Cn1cnc(-c2ccccc2)c1-c1ccccc1)Cn1c2ccccc2c2ccccc21 (centres unmarked) [CBK261416]	78.2%
COCC(=O)NC1CCN(CC2(c3ccccc3F)CCCC2)CC1 [CBK284850]	114%
CCc1nc2c(OCCOc3ccccc3)cccn2c1N(C=O)CC(=O)N(C)C [CBK147510]	96.5%
Cc1ccn2cc(CNC(=O)N(C)CCc3scnc3C)nc2c1 [CBK307379]	87.5%
COc1cccc(NC(=O)c2cncc(-c3ccc(C(=O)N4CCOCC4)cc3)c2)c1 [CBK160213]	96.2%
O=C(O)c1cccc(NS(=O)(=O)c2cccc(Cl)c2Cl)c1 [CBK155686]	94.7%
O=C(O)[C@@H]1CCN(Cc2ccccc2)C[C@H]1c1ccccc1 [CBK286840]	102%

Structure (SMILES)	viability at 28.5 h, 10 µM
O=C(O)c1cccc(-c2nccnc2NCC2CC2)c1 [CBK038043]	95.5%
O=[N+]([O-])c1cccc(CN2CCC(N3CCN(Cc4ccccc4)CC3)CC2)c1 [CBK264609G]	93.5%
Cc1ccnc(SCc2ccc(F)cc2Cl)n1 [CBK270290]	87.4%
c1ccc(COc2cccc(CNCCN3CCOCC3)c2)cc1 [CBK278226C]	95.8%
CN1CCCN(c2cncc(-c3cccc(OC(F)(F)F)c3)n2)CC1 [CBK065949]	102%
CCn1cc(-c2cncn2CCCn2nc(C)cc2C)cn1 [CBK281770]	97.1%
O=C(CSc1nnc(COc2ccccc2)o1)c1cccc([N+](=O)[O-])c1 [CBK267868]	104%
O=C(O)C(Cc1ccccc1)n1cnnn1 (centres unmarked) [CBK021162]	109%
COc1ccc(Cn2ncnc2CC2CCNCC2)cc1 [CBK307071]	83.4%
Cn1nc(C(C)(C)C)cc1NC(=O)CN1CCc2cncnc2C1 [CBK304934]	106%
O=S(=O)(NC1CCCCC1)c1ccc(S(=O)(=O)N2CCOCC2)cc1 [CBK269618]	102%
CSc1nc(O)cc(C(F)(F)F)n1 [CBK001401]	112%
COc1cccc(CN2CCc3cc(OC)c(OC)cc3C2)c1 [CBK126441]	102%
COc1ccc(Cl)cc1NS(=O)(=O)N(C)C [CBK025794]	90.6%
CN(C)CC(=O)N1CCc2nc(-c3ccccc3F)sc2C1 [CBK281918]	85.6%
CCOC(=O)C1CCCN(C(=O)Cn2ccc3sccc3c2=O)C1 (centres unmarked) [CBK304099]	100%
C[C@H]1CN2C[C@H](O)CC2CN1Cc1cccc2ccccc12 (some centres unmarked) [CBK284717]	92.5%
CN(C)CCN1CCN(c2ccc(-c3ccsc3)cn2)CC1 [CBK036915]	96.2%
CC(C)Nc1nccnc1Sc1ccc(N)cc1 [CBK089485]	77.1%
CC1=CCN(C(=O)c2cccc(S(=O)(=O)NCC3CCCO3)c2)CC1 (centres unmarked) [CBK304669]	95.5%
Cc1cccn2cc(C(=O)N3CC(C(=O)N4CCN(c5ccccc5)CC4)C3)nc12 [CBK285663]	101%

same assay, conditions: human, hela cells, % viability, bulk resorufin, single well

Structure (SMILES)	viability at 28.5 h, 10 µM
CN(C)C(=O)c1ccc(Cn2nc(C(=O)Nc3nccs3)c3ccccc32)cc1 [CBK047701]	95.4%
